In patent US8871269B2, “Method for the preparation of controlled release formulations” (Evonik Corporation, priority 2003, dated 2014):

Assay: Stability of free peptide incubated in release medium (HPLC)
Assay type: physicochemical
Conditions: free peptide incubated in release medium (PBS, pH 7.2, 37 C), after 49 days
Protocol: Octreotide acetate as the free peptide was measured to be 95% intact by high-pressure liquid chromatography (HPLC) following incubation in the release medium (PBS, pH 7.2, 37° C.) after 49 days. In contrast, incubation of octreotide acetate PLGA microparticle formulations produced 55% of modified peptide species after 70 days in the release medium (PBS, pH 7.2, 37° C., Table 2). […] The masses found were consistent with random acylation, for example, peptide plus one or two glycolic or lactic acid monomers in any combination. It may be that acylation products arise from attack on PLGA fragments or the polymer backbone by nucleophilic moieties in octreotide. At a lower pH these moieties likely would be protonated reducing their nucleophilicity and consequently the amount of acylated product. It was observed that formation of acylated byproducts for octreotide acetate PLGA microparticles incubated in 100 mM sodium acetate (NaOAc, pH 4.0) buffer was reduced to 1.25% at 49 days, in marked contrast to the results for PBS buffer (55%).

- Peptide intact by HPLC: 95%
SMILES: C[C@@H](O)[C@@H]1NC(=O)[C@H](CCCCN)NC(=O)[C@@H](Cc2c[nH]c3ccccc23)NC(=O)[C@H](Cc2ccccc2)NC(=O)[C@@H](NC(=O)[C@H](N)Cc2ccccc2)CSSC[C@@H](C(=O)N[C@H](CO)[C@@H](C)O)NC1=O [Octreotide acetate]
